Like-named read-outs stand apart in the source and are kept apart here.
How the values were obtained:
[1] = molecular target: full-length human RORγt (Homo sapiens (Human), UniProt P51449); assay: RORγt (full-length human) reporter assay, Conditions B or C; type: cell-based; conditions: for inhibition at 3 µM: at 3 μM compound concentration; for RORγt (FL) Reporter Assay B or C, % inhibition (value marked *): marked *: footnote not given
Excerpt: RORγt (Full-Length Human) Reporter Assay:
Cells used in this assay were transiently co-transfected with three different plasmids, one expressing the GAL4-DNA binding domain (DBD)-RORγt fusion protein under control of a CMV promoter (NH2-Gal4-DBD:RORC-COOH in pCMV-BD, Stratagene #211342), and two reporter plasmids—the firefly luciferase reporter under control of a GAL4 promoter (pFR-Luc 2×GAL4) and Renilla luciferase reporter under control of CMV promoter (pRL-CMV, Promega # E2261). The full-length coding sequence was used for human RORγt, i.e., nucleotides 142-1635 of human RORγt, transcript variant 2, NCBI Accession: NM_001001523.1 (SEQ ID NO:1). HEK293T cells were plated at 35,000 per well in 96-well plate in medium of DMEM with 10% FBS. After 18-22 hours incubation, the transfection was carried out by using a PEI solution with 170.5 ng total DNA/well (50 ng pCMV-BD-ROR plus 20 ng of pFR-Luc reporter and 0.5 ng of pRL-CMV reporter plus 100 ng Carrier DNA (Clontech #630440) for each well). 4-6 hours after transfection, cells were treated with compounds for overnight in the medium with final concentration of FBS 1.3% and DMSO 0.1%. After overnight (16 to 20 hours) incubation, media were removed and cells were lysed with 50 μL Glo Lysis Buffer (Promega) for 10-15 minutes followed by 10 minute incubation with 50 μL Dual Glo reagent (Promega) at room temperature. Firefly luciferase luminescence was measured using a BMG Pherastar plate reader. To each well, 50 μL Stop and Glo reagent was added and incubated for 10 minutes at room temperature. Renilla luminescence was measured using a BMG Pherastar plate reader. To calculate the effect of compounds on RORγt activity, firefly values were normalized against values of DMSO only and values of reference compound at saturating concentration, then further normalized against Renilla signals. IC50s were generated by plotting final Renilla normalized data against compound concentration and percent inhibition was calculated against DMSO control.
Cells used in this assay were transiently co-transfected with three different plasmids, one expressing the GAL4-DNA binding domain (DBD)-RORγt fusion protein under control of a CMV promoter (NH2-Gal4-DBD:RORC-COOH in pCMV-BD, Stratagene #211342), and two reporter plasmids—the firefly luciferase reporter under control of a GAL4 promoter (pFR-Luc 2×GAL4) and Renilla luciferase reporter under control of CMV promoter (pRL-CMV, Promega # E2261). The full-length coding sequence was used for human RORγt, i.e., nucleotides 142-1635 of human RORγt, transcript variant 2, NCBI Accession: NM_001001523.1 (SEQ ID NO:1). HEK293T cells were plated at 8750 cells per well in 384-well plate in medium of DMEM with 10% FBS. After 18-22 hours incubation, the transfection was carried out by using a PEI solution with 42.6 ng total DNA/well (12.5 ng pCMV-BD-ROR plus 5 ng of pFR-Luc reporter and 0.125 ng of pRL-CMV reporter plus 25 ng Carrier DNA (Clontech #630440) for each well). 4-6 hours after transfection, cells were treated with compounds for overnight in the medium with final concentration of FBS 1.3% and DMSO 0.1%. After overnight (16 to 20 hours) incubation, media were removed and cells were lysed with 20 μL Glo Lysis Buffer (Promega) for 10-15 minutes followed by 10 minute incubation with 20 μL Dual Glo reagent (Promega) at room temperature. Firefly luciferase luminescence was measured using a BMG Pherastar plate reader. To each well, 20 μL Stop and Glo reagent was added and incubated for 10 minutes at room temperature. Renilla luminescence was measured using a BMG Pherastar plate reader. To calculate the effect of compounds on RORγt activity, firefly values were normalized against values of DMSO only and values of reference compound at saturating concentration, then further normalized against Renilla signals.

[2] = molecular target: human RORγt ligand binding domain (RORγt LBD) (Homo sapiens (Human), UniProt P51449); assay: RORγt ThermoFluor® assay (thermal shift binding); conditions: read-out: ThermoFluor® Assay, Kd
Excerpt: ThermoFluor® is a fluorescence based assay that estimates ligand binding affinities by measuring the effect of a ligand on protein thermal stability (Pantoliano, M. W., Petrella, E. C., Kwasnoski, J. D., Lobanov, V. S., Myslik, J., Graf, E., Carver, T., Asel, E., Springer, B. A., Lane, P., and Salemme, F. R. (2001) High-density miniaturized thermal shift assays as a general strategy for drug discovery. J Biomol Screen 6, 429-40, and Matulis, D., Kranz, J. K., Salemme, F. R., and Todd, M. J. (2005) Thermodynamic stability of carbonic anhydrase: measurements of binding affinity and stoichiometry using ThermoFluor. Biochemistry 44, 5258-66). This approach is applicable to a wide variety of systems, and rigorous in theoretical interpretation through quantitation of equilibrium binding constants (KD).
The shift in the melting point described as a ΔTm is proportional to the concentration and affinity of the ligand. The compound potency may be compared as a rank order of either ΔTm values at a single compound concentration or in terms of KD values, estimated from concentration response curves.
RORγt ThermoFluor® Assay Construct
For the RORγt construct used in the ThermoFluor® assay, numbering for the nucleotide sequences was based on the reference sequence for human RORγt, transcript variant 2, NCBI Accession: NM_001001523.1 (SEQ ID NO:1). Nucleotides 850-1635 (SEQ ID NO:2) coding for the wild type human RORγt ligand binding domain (RORγt LBD) were cloned into the pHIS1 vector, a modified pET E. coli expression vector (Accelagen, San Diego), containing an in-frame N-terminal His-tag and a TurboTEV protease cleavage site (ENLYFQG, SEQ ID NO:3) upstream of the cloned insert sequence. The amino acid sequence for the RORγt construct used in the Thermofluor® assay is shown as SEQ ID NO:4.
ThermoFluor® experiments were carried out using instruments owned by Janssen Research and Discovery, L.L.C. through its acquisition of 3-Dimensional Pharmaceuticals, Inc. 1,8-ANS (Invitrogen) was used as a fluorescent dye. Protein and compound solutions are dispensed into black 384-well polypropylene PCR microplates (Abgene) and overlayed with silicone oil (1 μL, Fluka, type DC 200) to prevent evaporation.
Bar-coded assay plates are robotically loaded onto a thermostatically controlled PCR-type thermal block and then heated at a typical ramp-rate of 1° C./min for all experiments. Fluorescence was measured by continuous illumination with UV light (Hamamatsu LC6) supplied via fiber optic and filtered through a band-pass filter (380-400 nm; >6 OD cutoff). Fluorescence emission of the entire 384-well plate was detected by measuring light intensity using a CCD camera (Sensys, Roper Scientific) filtered to detect 500±25 nm, resulting in simultaneous and independent readings of all 384 wells. Images were collected at each temperature, and the sum of the pixel intensity in a given area of the assay plate was recorded versus temperature. Reference wells contained RORγt without compounds, and the assay conditions were as follows: • 0.065 mg/mL RORγt • 60 μM 1,8-ANS • 100 mM Hepes, pH 7.0 • 10 mM NaCl • 2.5 mM GSH • 0.002% Tween-20
Project compounds were arranged in a pre-dosed mother plate (Greiner Bio-one) wherein compounds are serially diluted in 100% DMSO by 1:2 from a high concentration of 10 mM over 12 columns within a series (column 12 is a reference well containing DMSO, no compound). The compounds were robotically dispensed directly into assay plates (×=46 nL) using a Hummingbird capillary liquid handling instrument (Digilab). Following compound dispense, protein and dye in buffer was added to achieve the final assay volume of 3 μL, followed by 1 μL of silicone oil.

[3] = read-out: RORγt (FL) Reporter Assay B or C, % inhibition
[4] = read-out: RORγt (FL) Reporter Assay B or C, IC50
[5] = Conditions B or C, read-out: RORγt (FL) Reporter Assay B or C, IC50

Sequence of human RORγt ligand binding domain (RORγt LBD) (P51449 other isoform, or with tags, fused parts or gaps): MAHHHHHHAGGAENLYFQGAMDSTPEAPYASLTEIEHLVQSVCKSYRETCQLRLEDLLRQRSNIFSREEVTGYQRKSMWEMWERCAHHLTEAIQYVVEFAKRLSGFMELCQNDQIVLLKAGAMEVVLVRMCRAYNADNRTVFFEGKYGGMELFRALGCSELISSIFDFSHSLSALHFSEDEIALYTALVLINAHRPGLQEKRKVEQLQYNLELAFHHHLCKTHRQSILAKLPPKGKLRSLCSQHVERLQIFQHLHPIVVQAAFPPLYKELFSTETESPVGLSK
Sequence of full-length human RORγt (P51449 other isoform, or with tags, fused parts or gaps): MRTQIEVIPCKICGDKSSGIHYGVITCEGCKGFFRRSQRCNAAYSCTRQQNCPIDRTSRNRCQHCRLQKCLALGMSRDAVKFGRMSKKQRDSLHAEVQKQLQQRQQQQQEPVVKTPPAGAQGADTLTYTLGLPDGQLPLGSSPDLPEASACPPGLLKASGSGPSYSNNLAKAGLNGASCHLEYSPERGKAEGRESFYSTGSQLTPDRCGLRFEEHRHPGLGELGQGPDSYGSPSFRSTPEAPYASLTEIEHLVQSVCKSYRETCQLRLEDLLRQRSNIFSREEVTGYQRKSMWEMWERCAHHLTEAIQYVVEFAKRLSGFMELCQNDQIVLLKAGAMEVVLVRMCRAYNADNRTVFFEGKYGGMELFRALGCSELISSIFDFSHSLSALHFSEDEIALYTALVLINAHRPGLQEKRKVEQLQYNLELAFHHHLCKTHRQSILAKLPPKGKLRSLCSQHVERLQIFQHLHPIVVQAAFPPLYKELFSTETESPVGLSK

inhibition at 3 µM [1, 3] [%]	IC50 [1, 4] [µM]	Kd [2] [nM]	IC50 [1, 5] [µM]	inhibition at 1 µM ([1]; at 1 μM compound concentration, read-out: RORγt (FL) Reporter Assay B or C, % inhibition) [%]	inhibition at 0.33 µM ([1]; at 0.33 μM compound concentration, read-out: RORγt (FL) Reporter Assay B or C, % inhibition) [%]	Structure (SMILES)	RORγt (FL) Reporter Assay B or C, % inhibition (value marked *) ([1]; Conditions B or C)	IC50 ([1]; RORγt (FL) Reporter Assay B or C, IC50 (μM), Conditions B or C) [µM]
109	0.0029	0.97	–	–	–	C[C@H]1CCCN1C(=O)c1nc(C(=O)NC(C)(C)CO)sc1-c1cnc(NC(C)(C)C)cc1C(F)(F)F [Example 339, 5-[6-(tert-Butylamino)-4-(trifluoromethyl)-3-pyridyl]-N-(2-hydroxy-1,1-dimethyl-ethyl)-4-[(2S)-2-methylpyrrolidine-1-carbonyl]thiazole-2-carboxamide]	–	–
99	0.021	4	–	–	–	C[C@@H](CO)NC(=O)c1nc(C(=O)N2CCC[C@@H]2C)c(-c2cnc(NC(C)(C)C)cc2C(F)(F)F)s1 [Example 362, 5-[6-(tert-Butylamino)-4-(trifluoromethyl)-3-pyridyl]-N-[(1S)-2-hydroxy-1-methyl-ethyl]-4-[(2S)-2-methylpyrrolidine-1-carbonyl]thiazole-2-carboxamide]	–	–
107	0.0057	4	–	–	–	CC(C)[C@@H](C)NC(=O)c1nc(C(=O)N2CCC[C@@H]2C)c(-c2cnc(NC(C)(C)C)cc2C(F)(F)F)s1 [Example 341, 5-[6-(tert-Butylamino)-4-(trifluoromethyl)-3-pyridyl]-N-[(1R)-1,2-dimethylpropyl]-4-[(2S)-2-methylpyrrolidine-1-carbonyl]thiazole-2-carboxamide]	–	–
–	–	0.12	0.0081	–	–	C[C@H]1CC(F)(F)CN1C(=O)c1nc(C(=O)NC2COCC2O)sc1-c1cnc(NC2(C)CCC2)cc1C(F)(F)F (stereo partly drawn) [Example 182, 4-((S)-4,4-Difluoro-2-methylpyrrolidine-1-carbonyl)-N-(cis-4-hydroxytetrahydrofuran-3-yl)-5-(6-((1-methylcyclobutyl)amino)-4-(trifluoromethyl)pyridine-3-yl)thiazole-2-carboxamide]	99* %	–
–	0.015	2.9	–	99	–	C[C@H]1CC(F)(F)CN1C(=O)c1nc(C(=O)N[C@H]2C[C@H](O)C2)sc1-c1cnc(N[C@@H](C2CC2)C(F)(F)F)cc1C(F)F [Example 315, 5-(6-(((S)-1-Cyclopropyl-2,2,2-trifluoroethyl)amino)-4-(difluoromethyl)pyridin-3-yl)-4-((S)-4,4-difluoro-2-methylpyrrolidine-1-carbonyl)-N-((1r,3S)-3-hydroxycyclobutyl)thiazole-2-carboxamide]	–	–
–	0.011	1.3	–	–	122	C[C@H]1CCCN1C(=O)c1nc(C(=O)N[C@@H]2CC[C@@H](O)C2)sc1-c1cnc(NC(C)(C)C)cc1C(F)F [Example 432, 5-[6-(tert-Butylamino)-4-(difluoromethyl)-3-pyridyl]-N-[(1R,3R)-3-hydroxycyclopentyl]-4-[(2S)-2-methylpyrrolidine-1-carbonyl]thiazole-2-carboxamide]	–	–
99	0.021	2.1	–	–	–	C[C@H]1CCCN1C(=O)c1nc(C(=O)N[C@H]2CC[C@@H](O)C2)sc1-c1cnc(NC(C)(C)C)cc1C(F)(F)F [Example 367, 5-[6-(tert-Buylamino)-4-(trifluoromethyl)-3-pyridyl]-N-[(1S,3R)-3-hydroxycyclopentyl]-4-[(2S)-2-methylpyrrolidine-1-carbonyl]thiazole-2-carboxamide]	–	–
–	–	0.53	0.018	–	–	CCC(C)(C)Nc1cc(C(F)(F)F)c(-c2sc(C(=O)NCC(C)(C)O)nc2C(=O)N2CCC[C@@H]2C)cn1 [Example 109, (S)—N-(2-Hydroxy-2-methylpropyl)-4-(2-methylpyrrolidine-1-carbonyl)-5-(6-(tert-pentylamino)-4-(trifluoromethyl)pyridin-3-yl)thiazole-2-carboxamide]	124* %	–

Structure (SMILES)	inhibition at 3 µM [1, 3] [%]	IC50 [1, 4] [µM]	Kd [2] [nM]	IC50 [1, 5] [µM]	inhibition at 1 µM ([1]; at 1 μM compound concentration, read-out: RORγt (FL) Reporter Assay B or C, % inhibition) [%]	inhibition at 0.33 µM ([1]; at 0.33 μM compound concentration, read-out: RORγt (FL) Reporter Assay B or C, % inhibition) [%]	RORγt (FL) Reporter Assay B or C, % inhibition (value marked *) ([1]; Conditions B or C)	IC50 ([1]; RORγt (FL) Reporter Assay B or C, IC50 (μM), Conditions B or C) [µM]
CC[C@H](Nc1cc(C(F)F)c(-c2sc(C(=O)N[C@H]3C[C@H](O)C3)nc2C(=O)N2C3CCC2CC3)cn1)C(F)(F)F [Example 222, 4-((1s,4s)-7-Azabicyclo[2.2.1]heptane-7-carbonyl)-5-(4-(difluoromethyl)-6-(((1S)-1-(trifluoromethyl)propyl)amino)-3-pyridyl)-N-((1r,3S)-3-hydroxycyclobutyl)thiazole-2-carboxamide]	–	–	10	0.012	–	–	113* %	–
CC[C@H](Nc1cc(C(F)(F)F)c(-c2sc(C(=O)N[C@@H]3COC[C@H]3O)nc2C(=O)N2C3CCC2CC3)cn1)C(F)(F)F [Example 155]	–	–	1.1	–	–	–	103* %	0.0058
